Data as given in publication PMC4447944 (The Journal of Biological Chemistry, 2015).

Columns and labels:
hMARK2 = molecular target: T1, hMARK2 (Homo sapiens, UniProt Q7KZI7); assay: KINOMEscan; type: binding
T1 construct: purchased DiscoverX

hEPHB4 = molecular target: T2, hEPHB4 (Homo sapiens, UniProt P54760); assay: KINOMEscan; type: binding
T2 construct: purchased DiscoverX

hPRP4 = molecular target: T3, hPRP4 (Homo sapiens, UniProt Q13523); assay: KINOMEscan; type: binding
T3 construct: purchased DiscoverX

hCSNK1G1 = molecular target: T4, hCSNK1G1 (Homo sapiens, UniProt Q9HCP0); assay: KINOMEscan; type: binding
T4 construct: purchased DiscoverX (KINOMEscan platform)

hTRKC = molecular target: T5, hTRKC (Homo sapiens, UniProt Q16288); assay: KINOMEscan; type: binding
T5 construct: purchased DiscoverX
T5 sequence (Q16288 32-839): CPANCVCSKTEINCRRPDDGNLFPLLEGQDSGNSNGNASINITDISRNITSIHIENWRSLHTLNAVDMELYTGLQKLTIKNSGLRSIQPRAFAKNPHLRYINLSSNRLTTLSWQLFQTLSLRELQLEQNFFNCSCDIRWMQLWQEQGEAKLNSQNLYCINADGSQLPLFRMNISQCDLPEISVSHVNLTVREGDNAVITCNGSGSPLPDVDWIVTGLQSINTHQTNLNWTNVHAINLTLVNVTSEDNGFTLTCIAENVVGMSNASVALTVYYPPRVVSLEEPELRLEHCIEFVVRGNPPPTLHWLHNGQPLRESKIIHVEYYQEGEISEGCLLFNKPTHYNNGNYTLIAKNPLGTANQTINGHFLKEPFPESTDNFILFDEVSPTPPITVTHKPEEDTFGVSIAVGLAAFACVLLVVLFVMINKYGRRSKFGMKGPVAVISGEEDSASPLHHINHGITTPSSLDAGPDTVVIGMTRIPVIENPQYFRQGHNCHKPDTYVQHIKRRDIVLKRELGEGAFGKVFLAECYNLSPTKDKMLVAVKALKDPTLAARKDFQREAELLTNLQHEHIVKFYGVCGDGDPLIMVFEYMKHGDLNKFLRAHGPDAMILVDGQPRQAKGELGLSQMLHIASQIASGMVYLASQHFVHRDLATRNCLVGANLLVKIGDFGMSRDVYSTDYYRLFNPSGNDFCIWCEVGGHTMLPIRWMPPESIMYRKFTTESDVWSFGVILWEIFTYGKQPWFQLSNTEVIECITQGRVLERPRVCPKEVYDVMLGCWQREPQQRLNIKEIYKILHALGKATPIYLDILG

hRARγ = molecular target: T6, hRARγ (Homo sapiens, UniProt P13631); assay: Nuclear hormone receptor assay (Eurofins-CEREP); conditions: read-out: Relative IC50
T6 construct: Eurofins-CEREP

hCHEK2 = molecular target: T7, hCHEK2 (Homo sapiens, UniProt O96017); assay: KINOMEscan; type: binding
T7 construct: purchased DiscoverX
T7 sequence (O96017 whole entry): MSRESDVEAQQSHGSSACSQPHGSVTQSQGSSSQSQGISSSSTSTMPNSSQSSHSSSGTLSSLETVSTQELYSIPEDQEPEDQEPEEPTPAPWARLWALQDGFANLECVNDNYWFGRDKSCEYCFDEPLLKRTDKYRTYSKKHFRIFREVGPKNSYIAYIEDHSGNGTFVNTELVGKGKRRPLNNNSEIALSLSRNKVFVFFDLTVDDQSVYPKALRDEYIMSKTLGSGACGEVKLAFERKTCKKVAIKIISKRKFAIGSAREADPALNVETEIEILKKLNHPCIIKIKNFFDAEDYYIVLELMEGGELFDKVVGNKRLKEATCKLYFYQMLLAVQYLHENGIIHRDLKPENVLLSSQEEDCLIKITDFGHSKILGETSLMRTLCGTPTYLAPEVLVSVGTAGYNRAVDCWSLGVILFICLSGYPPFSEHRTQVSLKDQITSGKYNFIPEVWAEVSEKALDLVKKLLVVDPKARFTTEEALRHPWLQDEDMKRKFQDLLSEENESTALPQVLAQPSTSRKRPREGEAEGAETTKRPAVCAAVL

hABL1(F317I) = molecular target: T8, hABL1(F317I) (Homo sapiens, UniProt P00519, F317I); assay: KINOMEscan; type: binding
T8 construct: purchased DiscoverX (KINOMEscan platform)

hERN1 = molecular target: T9, hERN1 (Homo sapiens, UniProt O75460); assay: KINOMEscan; type: binding
T9 construct: purchased DiscoverX
T9 sequence (O75460 19-977): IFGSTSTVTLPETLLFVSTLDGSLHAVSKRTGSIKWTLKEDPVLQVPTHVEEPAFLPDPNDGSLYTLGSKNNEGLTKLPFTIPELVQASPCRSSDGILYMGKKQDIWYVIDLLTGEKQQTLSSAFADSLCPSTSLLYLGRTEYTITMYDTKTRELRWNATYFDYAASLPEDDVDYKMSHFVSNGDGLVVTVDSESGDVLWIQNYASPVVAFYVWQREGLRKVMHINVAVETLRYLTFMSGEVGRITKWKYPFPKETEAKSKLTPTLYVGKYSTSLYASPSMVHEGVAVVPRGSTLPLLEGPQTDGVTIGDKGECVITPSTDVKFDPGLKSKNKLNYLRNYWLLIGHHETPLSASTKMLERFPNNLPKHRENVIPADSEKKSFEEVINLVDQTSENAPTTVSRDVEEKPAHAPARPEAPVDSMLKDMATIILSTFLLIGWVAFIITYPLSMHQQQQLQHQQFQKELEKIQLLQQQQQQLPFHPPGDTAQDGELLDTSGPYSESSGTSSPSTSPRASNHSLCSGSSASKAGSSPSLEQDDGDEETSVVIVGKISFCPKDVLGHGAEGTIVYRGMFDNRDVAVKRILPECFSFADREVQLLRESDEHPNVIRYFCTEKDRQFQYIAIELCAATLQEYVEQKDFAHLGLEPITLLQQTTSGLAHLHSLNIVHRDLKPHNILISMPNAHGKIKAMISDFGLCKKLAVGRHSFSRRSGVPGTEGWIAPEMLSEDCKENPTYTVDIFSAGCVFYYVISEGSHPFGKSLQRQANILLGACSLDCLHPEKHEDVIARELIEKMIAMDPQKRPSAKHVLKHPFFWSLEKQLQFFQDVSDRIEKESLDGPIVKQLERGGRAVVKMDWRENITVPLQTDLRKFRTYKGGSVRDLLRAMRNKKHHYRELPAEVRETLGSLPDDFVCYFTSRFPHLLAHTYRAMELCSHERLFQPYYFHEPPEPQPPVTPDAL

hTIE1 = molecular target: T10, hTIE1 (Homo sapiens, UniProt P35590); assay: KINOMEscan; type: binding
T10 construct: purchased DiscoverX

hTNK1 = molecular target: T11, hTNK1 (Homo sapiens, UniProt Q13470); assay: KINOMEscan; type: binding
T11 construct: purchased DiscoverX

hRIPK1 = molecular target: T12, hRIPK1 (Homo sapiens, UniProt Q13546); assay: KINOMEscan; type: binding
T12 construct: purchased DiscoverX (KINOMEscan platform)

hABL1(pT315I) = molecular target: T13, hABL1(pT315I) (Homo sapiens, UniProt P00519, T315I); assay: KINOMEscan; type: binding
T13 construct: purchased DiscoverX (KINOMEscan platform)

hVRK2 = molecular target: T14, hVRK2 (Homo sapiens, UniProt Q86Y07); assay: KINOMEscan; type: binding
T14 construct: purchased DiscoverX

hABL1(pH396P) = molecular target: T15, hABL1(pH396P) (Homo sapiens, UniProt P00519, H396P); assay: KINOMEscan; type: binding
T15 construct: purchased DiscoverX (KINOMEscan platform)

hITK = molecular target: T16, hITK (Homo sapiens, UniProt Q08881); assay: KINOMEscan; type: binding
T16 construct: purchased DiscoverX (KINOMEscan panel)

hMEK4 = molecular target: T17, hMEK4 (Homo sapiens, UniProt P45985); assay: KINOMEscan; type: binding
T17 construct: purchased DiscoverX

hADRβ1 = hADRβ1 (Homo sapiens, UniProt P08588); assay: β-arrestin Antagonist (Eurofins-CEREP); conditions: read-out: % Effect, Inhibition
hSGK3 = molecular target: T18, hSGK3 (Homo sapiens, UniProt Q96BR1); assay: KINOMEscan; type: binding
T18 construct: purchased DiscoverX (KINOMEscan platform)

hIKK-beta = molecular target: T19, hIKK-beta (Homo sapiens, UniProt O14920); assay: KINOMEscan; type: binding
T19 construct: purchased DiscoverX (KINOMEscan panel)

CYP2C9 = molecular target: T20, CYP2C9 (Homo sapiens, UniProt P11712); assay: Cytochrome p450 inhibition (Eurofins-CEREP); type: in vitro ADME
T20 construct: Eurofins-CEREP
T20 sequence (P11712 whole entry, species assumed): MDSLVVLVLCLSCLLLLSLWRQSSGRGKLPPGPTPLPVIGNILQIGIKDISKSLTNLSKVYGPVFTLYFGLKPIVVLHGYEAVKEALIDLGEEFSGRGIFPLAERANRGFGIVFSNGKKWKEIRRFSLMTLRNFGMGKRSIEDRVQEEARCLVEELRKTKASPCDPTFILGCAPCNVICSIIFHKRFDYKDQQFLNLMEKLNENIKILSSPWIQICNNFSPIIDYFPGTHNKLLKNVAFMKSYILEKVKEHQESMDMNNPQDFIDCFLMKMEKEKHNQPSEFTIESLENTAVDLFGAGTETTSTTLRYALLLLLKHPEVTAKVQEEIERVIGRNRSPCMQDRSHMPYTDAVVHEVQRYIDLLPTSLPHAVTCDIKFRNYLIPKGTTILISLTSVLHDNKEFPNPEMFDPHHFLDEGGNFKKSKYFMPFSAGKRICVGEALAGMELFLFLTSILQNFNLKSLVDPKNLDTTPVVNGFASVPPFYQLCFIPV

hD1 = hD1 (Homo sapiens, UniProt P21728); assay: β-arrestin Antagonist (Eurofins-CEREP); conditions: read-out: % Effect, Inhibition
Chain of hD1 (P21728 whole entry): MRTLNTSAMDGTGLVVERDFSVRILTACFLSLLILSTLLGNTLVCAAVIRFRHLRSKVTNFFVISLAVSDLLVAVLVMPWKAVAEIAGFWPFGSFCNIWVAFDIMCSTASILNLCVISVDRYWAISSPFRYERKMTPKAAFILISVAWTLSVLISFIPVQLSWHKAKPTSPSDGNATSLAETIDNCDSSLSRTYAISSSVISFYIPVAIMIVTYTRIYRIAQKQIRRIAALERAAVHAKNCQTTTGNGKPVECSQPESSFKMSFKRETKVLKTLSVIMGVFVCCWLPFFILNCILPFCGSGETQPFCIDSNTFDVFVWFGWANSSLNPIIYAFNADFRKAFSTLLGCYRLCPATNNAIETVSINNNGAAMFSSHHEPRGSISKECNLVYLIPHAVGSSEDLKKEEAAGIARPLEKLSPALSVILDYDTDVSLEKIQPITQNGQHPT

hACVRL1 = molecular target: T21, hACVRL1 (Homo sapiens, UniProt P37023); assay: KINOMEscan; type: binding
T21 construct: purchased DiscoverX (KINOMEscan platform)

hSTK35 = molecular target: T22, hSTK35 (Homo sapiens, UniProt Q8TDR2); assay: KINOMEscan; type: binding
T22 construct: purchased DiscoverX (KINOMEscan platform)

hERBB3 = molecular target: T23, hERBB3 (Homo sapiens, UniProt P21860); assay: KINOMEscan; type: binding
T23 construct: purchased DiscoverX

hRSK4(Kin.Dom.1-N-term) = molecular target: T24, hRSK4(Kin.Dom.1-N-term) (Homo sapiens, UniProt Q9UK32); assay: KINOMEscan; type: binding
T24 construct: hRSK4(Kin.Dom.1-N-term); purchased DiscoverX (KINOMEscan platform)

hEPHA6 = molecular target: T25, hEPHA6 (Homo sapiens, UniProt Q9UF33); assay: KINOMEscan; type: binding
T25 construct: purchased DiscoverX

hSLK = molecular target: T26, hSLK (Homo sapiens, UniProt Q9H2G2); assay: KINOMEscan; type: binding
T26 construct: purchased DiscoverX (KINOMEscan platform)

hABL1 = molecular target: T27, hABL1 (Homo sapiens, UniProt P00519); assay: KINOMEscan; type: binding
T27 construct: purchased DiscoverX (KINOMEscan platform)

hEGFR(E746-A750del) = molecular target: T28, hEGFR(E746-A750del) (Homo sapiens, UniProt P00533, DEL746-750); assay: KINOMEscan; type: binding
T28 construct: purchased DiscoverX

hCAMK2A = molecular target: T29, hCAMK2A (Homo sapiens, UniProt Q9UQM7); assay: KINOMEscan; type: binding
T29 construct: purchased DiscoverX

hRSK2(Kin.Dom.2-C-term) = molecular target: T30, hRSK2(Kin.Dom.2-C-term) (Homo sapiens, UniProt P51812); assay: KINOMEscan; type: binding
T30 construct: hRSK2(Kin.Dom.2-C-term); purchased DiscoverX (KINOMEscan platform)

hCSF1R-autoinhib = molecular target: T31, hCSF1R-autoinhib (Homo sapiens, UniProt P07333); assay: KINOMEscan; type: binding; conditions: read-out: Inhibition at the 20 μM dose
T31 construct: purchased DiscoverX (KINOMEscan platform)

hACVR1B = molecular target: T32, hACVR1B (Homo sapiens, UniProt P36896); assay: KINOMEscan; type: binding
T32 construct: purchased DiscoverX (KINOMEscan platform)

hERK4 = molecular target: T33, hERK4 (Homo sapiens, UniProt P31152); assay: KINOMEscan; type: binding
T33 construct: purchased DiscoverX
T33 sequence (P31152 whole entry): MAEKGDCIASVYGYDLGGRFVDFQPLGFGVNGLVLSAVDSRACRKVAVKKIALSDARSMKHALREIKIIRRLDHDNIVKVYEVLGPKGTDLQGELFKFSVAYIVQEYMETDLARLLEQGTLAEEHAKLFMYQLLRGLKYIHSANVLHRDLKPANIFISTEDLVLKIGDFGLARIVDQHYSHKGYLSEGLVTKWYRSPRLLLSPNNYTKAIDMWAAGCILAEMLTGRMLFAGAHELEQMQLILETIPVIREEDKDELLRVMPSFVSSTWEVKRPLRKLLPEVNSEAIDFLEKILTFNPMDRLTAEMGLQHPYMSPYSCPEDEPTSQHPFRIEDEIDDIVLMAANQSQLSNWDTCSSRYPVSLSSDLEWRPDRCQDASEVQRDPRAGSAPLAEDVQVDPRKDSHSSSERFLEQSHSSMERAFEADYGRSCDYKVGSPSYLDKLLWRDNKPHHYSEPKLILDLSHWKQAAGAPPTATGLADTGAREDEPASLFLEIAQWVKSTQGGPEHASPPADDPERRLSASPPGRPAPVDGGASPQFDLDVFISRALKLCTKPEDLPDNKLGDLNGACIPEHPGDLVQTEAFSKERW

hFGFR3 = molecular target: T34, hFGFR3 (Homo sapiens, UniProt P22607); assay: KINOMEscan; type: binding
T34 construct: purchased DiscoverX

hEPHA3 = molecular target: T35, hEPHA3 (Homo sapiens, UniProt P29320); assay: KINOMEscan; type: binding
T35 construct: purchased DiscoverX

hEPHB6 = molecular target: T36, hEPHB6 (Homo sapiens, UniProt O15197); assay: KINOMEscan; type: binding
T36 construct: purchased DiscoverX

hTGFBR2 = molecular target: T37, hTGFBR2 (Homo sapiens, UniProt P37173); assay: KINOMEscan; type: binding
T37 construct: purchased DiscoverX

hYSK1 = molecular target: T38, hYSK1 (Homo sapiens, UniProt O00506); assay: KINOMEscan; type: binding
T38 construct: purchased DiscoverX

hYANK2 = molecular target: T39, hYANK2 (Homo sapiens, UniProt Q9NY57); assay: KINOMEscan; type: binding
T39 construct: purchased DiscoverX
T39 sequence (Q9NY57 whole entry): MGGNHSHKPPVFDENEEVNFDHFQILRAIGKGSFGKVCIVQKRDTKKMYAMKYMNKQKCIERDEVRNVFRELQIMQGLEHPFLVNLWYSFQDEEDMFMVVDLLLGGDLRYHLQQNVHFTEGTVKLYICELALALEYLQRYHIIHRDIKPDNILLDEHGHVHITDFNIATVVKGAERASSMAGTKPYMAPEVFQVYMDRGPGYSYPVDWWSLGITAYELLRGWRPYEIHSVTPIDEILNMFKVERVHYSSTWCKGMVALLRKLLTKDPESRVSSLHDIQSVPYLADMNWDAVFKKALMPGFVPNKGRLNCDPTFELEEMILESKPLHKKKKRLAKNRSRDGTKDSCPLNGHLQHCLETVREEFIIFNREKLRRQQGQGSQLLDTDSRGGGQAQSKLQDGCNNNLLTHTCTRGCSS

T1 sequence (Q7KZI7 whole entry): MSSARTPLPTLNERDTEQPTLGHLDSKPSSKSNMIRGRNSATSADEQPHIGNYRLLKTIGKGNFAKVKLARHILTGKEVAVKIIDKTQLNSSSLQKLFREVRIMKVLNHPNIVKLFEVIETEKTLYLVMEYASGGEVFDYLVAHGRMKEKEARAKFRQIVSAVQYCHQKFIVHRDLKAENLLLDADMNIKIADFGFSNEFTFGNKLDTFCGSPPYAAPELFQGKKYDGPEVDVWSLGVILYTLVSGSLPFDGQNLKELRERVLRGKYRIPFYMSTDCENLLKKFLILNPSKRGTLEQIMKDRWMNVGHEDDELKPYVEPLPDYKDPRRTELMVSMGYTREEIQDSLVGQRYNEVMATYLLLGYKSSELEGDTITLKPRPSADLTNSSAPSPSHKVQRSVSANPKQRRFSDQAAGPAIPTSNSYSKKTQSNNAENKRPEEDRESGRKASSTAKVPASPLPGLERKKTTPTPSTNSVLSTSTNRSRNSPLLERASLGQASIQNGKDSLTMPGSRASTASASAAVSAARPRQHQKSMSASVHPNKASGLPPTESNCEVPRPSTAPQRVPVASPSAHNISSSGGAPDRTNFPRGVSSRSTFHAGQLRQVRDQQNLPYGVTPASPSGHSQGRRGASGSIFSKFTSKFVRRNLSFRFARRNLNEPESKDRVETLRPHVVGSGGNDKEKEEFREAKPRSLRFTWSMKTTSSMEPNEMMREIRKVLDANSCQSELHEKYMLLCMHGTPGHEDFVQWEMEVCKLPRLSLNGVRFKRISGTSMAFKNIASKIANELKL

**Q.** For `Cc1cn(CCN2CCN(c3ccccc3-c3cc(C#N)cc(C(=O)NCCCN4CCCC4)c3)CC2)c2ccccc12` [LLY-507, 3-cyano-5-{2-[4-[2-(3-methylindol-1-yl)ethyl]piperazin-1-yl]-phenyl}-N-[(3-pyrrolidin-1-yl)propyl]benzamide], which IC50 (hMARK2) is on record?
**A.** > 20 µM

**Q.** And the IC50 (hEPHB4)?
**A.** > 20 µM

**Q.** And the IC50 (hPRP4)?
**A.** > 20 µM

**Q.** What about the IC50 (hCSNK1G1) of the same molecule?
**A.** > 20 µM

**Q.** And the IC50 (hTRKC)?
**A.** > 20 µM

**Q.** And the IC50 (hRARγ)?
**A.** > 10 µM

**Q.** And the IC50 (hCHEK2)?
**A.** > 20 µM

**Q.** And the IC50 (hABL1(F317I))?
**A.** > 20 µM

**Q.** What about the IC50 (hERN1) of the same molecule?
**A.** > 20 µM

**Q.** What about the IC50 (hTIE1) of the same molecule?
**A.** > 20 µM

**Q.** What about the IC50 (hTNK1) of the same molecule?
**A.** > 20 µM

**Q.** What about the IC50 (hRIPK1) of the same molecule?
**A.** > 20 µM

**Q.** And the IC50 (hABL1(pT315I))?
**A.** > 20 µM

**Q.** And the IC50 (hVRK2)?
**A.** > 20 µM

**Q.** What about the IC50 (hABL1(pH396P)) of the same molecule?
**A.** > 20 µM

**Q.** And the IC50 (hITK)?
**A.** > 20 µM

**Q.** And the IC50 (hMEK4)?
**A.** > 20 µM

**Q.** What about the inhibition at 10 µM (hADRβ1) of the same molecule?
**A.** -6%

**Q.** What about the IC50 (hSGK3) of the same molecule?
**A.** > 20 µM

**Q.** What about the IC50 (hIKK-beta) of the same molecule?
**A.** > 20 µM

**Q.** What about the “% inhibition @ 10 μM” value (CYP2C9) of the same molecule?
**A.** 34.2%

**Q.** And the inhibition at 10 µM (hD1)?
**A.** 43.4%

**Q.** What about the IC50 (hACVRL1) of the same molecule?
**A.** > 20 µM

**Q.** What about the IC50 (hSTK35) of the same molecule?
**A.** > 20 µM

**Q.** What about the IC50 (hERBB3) of the same molecule?
**A.** > 20 µM

**Q.** What about the IC50 (hRSK4(Kin.Dom.1-N-term)) of the same molecule?
**A.** > 20 µM

**Q.** And the IC50 (hEPHA6)?
**A.** > 20 µM

**Q.** And the IC50 (hSLK)?
**A.** > 20 µM

**Q.** And the IC50 (hABL1)?
**A.** > 20 µM

**Q.** And the IC50 (hEGFR(E746-A750del))?
**A.** > 20 µM

**Q.** And the IC50 (hCAMK2A)?
**A.** > 20 µM

**Q.** And the IC50 (hRSK2(Kin.Dom.2-C-term))?
**A.** > 20 µM

**Q.** What about the inhibition at 20 µM (hCSF1R-autoinhib) of the same molecule?
**A.** < 50%

**Q.** What about the IC50 (hACVR1B) of the same molecule?
**A.** > 20 µM

**Q.** And the IC50 (hERK4)?
**A.** > 20 µM

**Q.** And the IC50 (hFGFR3)?
**A.** > 20 µM

**Q.** And the IC50 (hEPHA3)?
**A.** > 20 µM

**Q.** And the IC50 (hEPHB6)?
**A.** > 20 µM

**Q.** What about the IC50 (hTGFBR2) of the same molecule?
**A.** > 20 µM

**Q.** What about the IC50 (hYSK1) of the same molecule?
**A.** > 20 µM

**Q.** And the IC50 (hYANK2)?
**A.** > 20 µM
